Active and inactive are the calls of the source. The calls are words filed in the database; no cut-off is given here.
How the values were obtained:
Plasmodium falciparum [1] = experiment: Antiplasmodial activity against chloroquine, pyrimethamine and mefloquine-resistant asexual blood stage of Plasmodium falciparum Dd2 assessed as reduction in parasite growth after 72 hrs by SYBR green I staining based fluorescence assay; format: functional, organism-based; conditions: Dd2, 72 h
[2] = Oral bioavailability in rat; format: ADME, organism-based; conditions: in vivo
[3] = Cytotoxicity against human HEK293 cells assessed as reduction in cell viability incubated for 24 hrs by resazurin dye based fluorescence assay
[4] = Stability in mouse hepatocyte assessed as half life measured after 120 mins by LC-MS analysis; format: ADME, tissue-based; conditions: hepatocytes
[5] = Partition coefficient, logD between 1-octanol and pH 7.4 PBS by LC-MS analysis; format: physicochemical; conditions: 1-octanol/PBS
Plasmodium berghei = experiment: In vivo antimalarial activity against blood stage transgenic Plasmodium berghei ANKA strain (PbGFP-Luccon) infected in swiss Webster mouse assessed as supression of parasitemia at 40 mg/kg, po administered once daily starting from day 2 to 6 post infection and measured at day 7 by luciferase substrate based imaging analysis; format: functional, organism-based; conditions: time 5.0 day
Plasmodium falciparum [6] = experiment: Antiplasmodial activity against chloroquine, pyrimethamine and mefloquine-sensitive asexual blood stage of Plasmodium falciparum 3D7 assessed as reduction in parasite growth after 72 hrs by SYBR green I staining based fluorescence assay; format: functional, organism-based; conditions: 3D7, 72 h
Escherichia coli = experiment: Antibacterial activity against Escherichia coli BL21 (DE3) cells assessed as inhibition of bacterial growth measured after 18 hrs measured by cell density meter; format: functional
[7] = AUC(0 to 24) in rat at 40 mg/kg, po; format: ADME, organism-based; parameters: time < 24 hr, route oral, dose 40 mg/kg; conditions: in vivo
[8] = Half life in rat plasma at 40 mg/kg, po; format: ADME, organism-based
[9] = Stability in CD-1 mouse plasma measured after 60 mins LC-MS analysis; format: ADME, cell-free; conditions: read-out: Stability
[10] = Cytotoxicity against human primary hepatocytes assessed as reduction in cell viability incubated for 24 hrs by DAPI staining based fluorescence assay; parameters: species or system Hepatocyte
[11] = Solubility of the compound in pH 7.4 PBS buffer by LC-MS analysis; format: physicochemical
[12] = Stability in CD-1 mouse liver microsomes assessed as half life measured after 60 mins in presence of NADPH LC-MS analysis; format: ADME, Microsome
[13] = Plasma protein binding in CD-1 mouse at 1 to 10 uM by LC-MS analysis; format: ADME, cell-free; conditions: dose 1-10 µM, read-out: PPB

SMILES	EC50 (Plasmodium falciparum [1]) [nM]	other results
CCOc1ccc([C@@H]2c3[nH]c4ccccc4c3CCN2C(=O)c2cc3ccccc3o2)cc1	1250	
CCOc1ccc([C@H]2c3[nH]c4ccccc4c3CCN2C(=O)c2cc3cc(Br)ccc3o2)cc1	625	
O=C(c1ccccc1)N1CCc2c([nH]c3ccccc23)C1c1ccc(Cl)cc1 (racemic)	2500	
CCOc1ccc([C@@H]2c3[nH]c4ccccc4c3CCN2C(=O)c2nc3cc(Br)ccc3[nH]2)cc1	625	
O=C(CCC1CCCC1)N1CCc2c([nH]c3ccccc23)C1c1ccc(Cl)cc1 (racemic)	726	
Clc1ccc(C2NCCc3c2[nH]c2ccccc32)cc1 (racemic)	5000	
O=C(c1cc2cc(Cl)ccc2o1)N1CCc2c([nH]c3ccccc23)[C@H]1c1ccc(F)cc1	143	
O=C(c1cc2cc(Cl)ccc2[nH]1)N1CCc2c([nH]c3ccccc23)[C@H]1c1ccc(Cl)cc1	1250	
O=C(c1cc2cc(Br)ccc2o1)N1CCc2c([nH]c3ccccc23)[C@H]1c1ccc(Cl)cc1	155	bioavailability [2]: 11%; CC50 at 24 h [3]: > 50000 nM; half-life [4]: 2.92 h; logD [5]: > 5; Activity (Plasmodium berghei): inactive; EC50 (Plasmodium falciparum [6]): 180 nM; MIC (Escherichia coli): > 25 µM; AUC at 24 h [7]: 28200 ng·h/mL; half-life [8]: 8 h; remaining at 1 h [9]: 100%; CC50 at 24 h [10]: > 10000 nM; solubility [11]: < 0.044 µM; half-life [12]: 1.32 h; fraction unbound at up to 10 µM [13]: < 0.001
CCOc1ccc([C@@H]2c3[nH]c4ccccc4c3CCN2C(=O)c2cc3cc(Br)ccc3o2)cc1	138	EC50 (Plasmodium falciparum [6]): 120 nM
CCOc1ccc([C@@H]2c3[nH]c4ccccc4c3CCN2C(=O)c2cc3cc(F)ccc3o2)cc1	123	
CCOc1ccc([C@@H]2c3[nH]c4ccccc4c3CCN2C(=O)c2cc3cc(Cl)ccc3[nH]2)cc1	1250	
O=C(c1cc2cc(Br)ccc2o1)N1CCc2c([nH]c3ccccc23)[C@H]1c1ccc(F)cc1	211	
O=C(c1cc2ccc(Br)cc2o1)N1CCc2c([nH]c3ccccc23)[C@H]1c1ccc(Cl)cc1	796	
N#Cc1ccc([C@@H]2c3[nH]c4ccccc4c3CCN2C(=O)c2cc3cc(Br)ccc3o2)cc1	216	
CCN(CC)CCCC(C)Nc1ccnc2cc(Cl)ccc12 (stereo not drawn) [CHLOROQUINE]	319	Activity (Plasmodium berghei): Active; EC50 (Plasmodium falciparum [6]): 7 nM

SMILES	EC50 (Plasmodium falciparum [1]) [nM]	other results
O=C(c1cc2cc(Cl)ccc2o1)N1CCc2c([nH]c3ccccc23)[C@H]1c1ccc(Br)cc1	194	
CC(=O)N1CCc2c([nH]c3ccccc23)C1c1ccc(Cl)cc1 (racemic)	2500	
C[C@@H]1CC[C@H]2[C@@H](C)C(=O)O[C@@H]3O[C@@]4(C)CC[C@@H]1[C@]32OO4 [ARTEMISININ]	11	EC50 (Plasmodium falciparum [6]): 10 nM
O=C(c1cc2cc(Br)ccc2o1)N1CCc2c([nH]c3ccccc23)C1c1ccc(Cl)cc1 (racemic)	185	
O=C(c1cc2cc(Br)ccc2o1)N1CCc2c([nH]c3ccccc23)[C@H]1c1ccc(Br)cc1	239	
O=C(c1ccc(Cl)c(Cl)c1)N1CCc2c([nH]c3ccccc23)C1c1ccc(Cl)cc1 (racemic)	1240	
O=C(c1cc2ccccc2o1)N1CCc2c([nH]c3ccccc23)[C@H]1c1ccc(Cl)cc1	1250	
COc1ccc(C(=O)N2CCc3c([nH]c4ccccc34)C2c2ccc(Cl)cc2)cc1 (racemic)	1250	
O=C(c1cc2cc(Cl)ccc2o1)N1CCc2c([nH]c3ccccc23)[C@H]1c1ccc(Cl)cc1	173	EC50 (Plasmodium falciparum [6]): 304 nM
O=C(c1cc2cc(Br)ccc2o1)N1CCc2c([nH]c3ccccc23)[C@@H]1c1ccc(Cl)cc1	28	EC50 (Plasmodium falciparum [6]): 15 nM
CCOc1ccc([C@@H]2c3[nH]c4ccccc4c3CCN2C(=O)c2cc3cc(Cl)ccc3o2)cc1	129	EC50 (Plasmodium falciparum [6]): 175 nM
Cc1ccc2oc(C(=O)N3CCc4c([nH]c5ccccc45)[C@H]3c3ccc(Cl)cc3)cc2c1	198	
O=C(c1cc2cc(Br)ccc2o1)N1CCc2c([nH]c3ccccc23)[C@H]1c1ccccc1	452	
O=C(c1ccc(Br)cc1)N1CCc2c([nH]c3ccccc23)C1c1ccc(Cl)cc1 (racemic)	682	
CCOc1ccc([C@@H]2c3[nH]c4ccccc4c3CCN2C(=O)c2nc3cc(Br)ccc3o2)cc1	770	EC50 (Plasmodium falciparum [6]): 937 nM
